Results taken from patent publication US6737383B1, “Herbicidal oxadiazolidines” (priority 1999, dated 2004).

Legend:
rape = test: Test B pre/postemergence rape; assay type: in vivo, Brassica napus
How it was run: (§1)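 Test chemicals in a non-phytotoxic solvent mixture with surfactant were sprayed preemergence onto planted seeds and postemergence onto plants 2 to 18 cm tall (1- to 4-leaf stage). After twelve to sixteen days in a greenhouse, injury was visually rated against untreated controls from 0 (no effect) to 10 (complete control).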

bedstraw = test: Test B pre/postemergence bedstraw; assay type: in vivo, Galium aparine; conditions: Postemergence
How it was run: as §1

duck salad = test: Test B flood test duck salad; assay type: in vivo, Heteranthera limosa
How it was run: (§2)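 Plants were grown to the 2-leaf stage before treatment with test chemical, then held in a greenhouse for twelve to sixteen days. Injury was visually rated against untreated controls on a 0–10 scale, where 0 is no effect and 10 is complete control.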

sugar beet = test: Test B pre/postemergence sugar beet; assay type: in vivo, Beta vulgaris
How it was run: as §1

cocklebur = test: Test B pre/postemergence cocklebur; assay type: in vivo, Xanthium strumarium
How it was run: as §1

bamyardgrass = test: Test B flood test barnyardgrass; assay type: in vivo, Echinochloa crus-galli
How it was run: as §2

pigweed = test: Test B pre/postemergence pigweed; assay type: in vivo, Amaranthus retroflexus
How it was run: as §1

wild oat = test: Test B pre/postemergence wild oat; assay type: in vivo, Avena fatua
How it was run: as §1

morningglory = test: Test B pre/postemergence morningglory; assay type: in vivo, Ipomoea hederacea
How it was run: as §1

crabgrass = test: Test B pre/postemergence crabgrass; assay type: in vivo, Digitaria sanguinalis
How it was run: as §1

soybean = test: Test B pre/postemergence soybean; assay type: in vivo, Glycine max
How it was run: as §1

velvetleaf = test: Test B pre/postemergence velvetleaf; assay type: in vivo, Abutilon theophrasti
How it was run: as §1

rice = test: Test B flood test rice; assay type: in vivo, Oryza sativa
How it was run: as §2

giant foxtail = test: Test B pre/postemergence giant foxtail; assay type: in vivo, Setaria faberii
How it was run: as §1

purple nutsedge = test: Test B pre/postemergence purple nutsedge; assay type: in vivo, Cyperus rotundus
How it was run: as §1

surinam grass = test: Test B pre/postemergence surinam grass; assay type: in vivo, Brachiaria decumbens
How it was run: as §1

blackgrass = test: Test B pre/postemergence blackgrass; assay type: in vivo, Alopecurus myosuroides
How it was run: as §1

smallflower flatsedge = test: Test B flood test smallflower flatsedge; assay type: in vivo, Cyperus difformis
How it was run: as §2

corn = test: Test B pre/postemergence corn; assay type: in vivo, Zea mays
How it was run: as §1

wheat = test: Test B pre/postemergence wheat; assay type: in vivo, Triticum aestivum
How it was run: as §1

[1] = Postemergence, Rate 125 g/ha, scale 0 to 10, 0 is no effect, 10 is complete control
[2] = Postemergence, Rate 500 g/ha, scale 0 to 10, 0 is no effect, 10 is complete control
[3] = Preemergence, Rate 62 g/ha, scale of 0 to 10 where 0 is no effect and 10 is complete control
[4] = Preemergence, Rate 125 g/ha, scale 0 to 10, 0 is no effect, 10 is complete control
[5] = Preemergence, Rate 500 g/ha, scale 0 to 10, 0 is no effect, 10 is complete control
[6] = Rate 62 g/ha, Postemergence, scale 0 to 10, 0 no effect, 10 complete control
[7] = Rate 62 g/ha, flood test species, Pre-emergence, visual evaluation after twelve to sixteen days
[8] = Rate 125 g/ha, under heading Pre-emergence, flood test species, visual evaluation after twelve to sixteen days
[9] = Rate 250 g/ha, Pre-emergence (flood test species), scale 0 to 10, 0 is no effect, 10 is complete control
[10] = Rate 500 g/ha, Pre-emergence section of Table B, 0 to 10 scale (0 no effect, 10 complete control)
[11] = Postemergence, Rate 250 g/ha, scale 0 to 10
[12] = Preemergence, Rate 250 g/ha, scale 0 to 10, 0 is no effect, 10 is complete control

Structure (SMILES): CC(C)N(C(=O)n1oc(=O)n(CC(=O)C2CC2)c1=O)c1ccc(F)cc1 [Compound 488]
- Rape plant response rating (rape; [1]): 0
- Plant response rating, Rape (rape; [2]): 0
- Plant response rating, Rape (rape; [3]): 1
- Rape plant response rating (rape; [4]): 7
- Rape plant response rating (rape; [5]): 10
- Rape plant response rating (rape; [6]): 0
- Bedstraw plant response rating (bedstraw; Rate 125 g/ha, scale 0 to 10, 0 is no effect, 10 is complete control): 2
- Bedstraw plant response rating (bedstraw; Rate 250 g/ha, scale 0 to 10): 4
- Plant response rating, Bedstraw (bedstraw; Rate 500 g/ha, scale 0 to 10, 0 is no effect, 10 is complete control): 9
- Bedstraw plant response rating (bedstraw; Rate 62 g/ha, scale 0 to 10, 0 no effect, 10 complete control): 0
- Plant response rating, Ducksalad (0 to 10 scale, 0 is no effect, 10 is complete control) (duck salad; [7]): 0
- Ducksalad plant response rating (0 to 10 scale, 0 is no effect, 10 is complete control) (duck salad; [8]): 0
- Ducksalad plant response rating (duck salad; [9]): 0
- Ducksalad plant response rating (duck salad; [10]): 0
- Sugarbeets plant response rating (sugar beet; [1]): 0
- Plant response rating, Sugarbeets (sugar beet; [2]): 1
- Plant response rating, Sugarbeets (sugar beet; [3]): 0
- Sugarbeets plant response rating (sugar beet; [4]): 4
- Sugarbeets plant response rating (sugar beet; [5]): 7
- Sugarbeets plant response rating (sugar beet; [6]): 0
- Cocklebur plant response rating (cocklebur; [1]): 0
- Cocklebur plant response rating (cocklebur; [11]): 0
- Plant response rating, Cocklebur (cocklebur; [2]): 0
- Plant response rating, Cocklebur (cocklebur; [3]): 0
- Cocklebur plant response rating (cocklebur; [4]): 0
- Cocklebur plant response rating (cocklebur; [12]): 0
- Cocklebur plant response rating (cocklebur; [5]): 0
- Cocklebur plant response rating (cocklebur; [6]): 0
- Plant response rating, Barnyardgrass (0 to 10 scale, 0 is no effect, 10 is complete control) (bamyardgrass; [7]): 0
- Barnyardgrass plant response rating (0 to 10 scale, 0 is no effect, 10 is complete control) (bamyardgrass; [8]): 0
- Barnyardgrass plant response rating (bamyardgrass; [9]): 0
- Barnyardgrass plant response rating (bamyardgrass; [10]): 0
- Redroot pigweed plant response rating (pigweed; [1]): 0
- Plant response rating, Redroot pigweed (pigweed; [2]): 2
- Plant response rating, Redroot pigweed (pigweed; [3]): 4
- Redroot pigweed plant response rating (pigweed; [4]): 10
- Redroot pigweed plant response rating (pigweed; [5]): 10
- Redroot pigweed plant response rating (pigweed; [6]): 0
- Wild oats plant response rating (wild oat; [1]): 0
- Plant response rating, Wild oats (wild oat; [2]): 5
- Plant response rating, Wild oats (wild oat; [3]): 3
- Wild oats plant response rating (wild oat; [4]): 8
- Wild oats plant response rating (wild oat; [5]): 10
- Wild oats plant response rating (wild oat; [6]): 0
- Morningglory plant response rating (morningglory; [1]): 2
- Plant response rating, Morningglory (morningglory; [2]): 8
- Plant response rating, Morningglory (morningglory; [3]): 0
- Morningglory plant response rating (morningglory; [4]): 0
- Morningglory plant response rating (morningglory; [5]): 0
- Morningglory plant response rating (morningglory; [6]): 1
- Crabgrass plant response rating (crabgrass; [1]): 7
- Crabgrass plant response rating (crabgrass; [11]): 8
- Plant response rating, Crabgrass (crabgrass; [2]): 9
- Plant response rating, Crabgrass (crabgrass; [3]): 8
- Crabgrass plant response rating (crabgrass; [4]): 10
- Crabgrass plant response rating (crabgrass; [5]): 10
- Soybean plant response rating (soybean; [1]): 4
- Plant response rating, Soybean (soybean; [2]): 5
- Plant response rating, Soybean (soybean; [3]): 0
- Soybean plant response rating (soybean; [4]): 0
- Soybean plant response rating (soybean; [5]): 1
- Soybean plant response rating (soybean; [6]): 4
- Velvetleaf plant response rating (velvetleaf; [1]): 0
- Plant response rating, Velvetleaf (velvetleaf; [2]): 1
- Plant response rating, Velvetleaf (velvetleaf; [3]): 0
- Velvetleaf plant response rating (velvetleaf; [4]): 2
- Velvetleaf plant response rating (velvetleaf; [5]): 6
- Velvetleaf plant response rating (velvetleaf; [6]): 0
- Plant response rating, Rice (0 to 10 scale, 0 is no effect, 10 is complete control) (rice; [7]): 0
- Rice plant response rating (0 to 10 scale, 0 is no effect, 10 is complete control) (rice; [8]): 0
- Rice plant response rating (rice; [9]): 0
- Rice plant response rating (rice; [10]): 0
- Giant foxtail plant response rating (giant foxtail; [1]): 8
- Plant response rating, Giant foxtail (giant foxtail; [2]): 9
- Plant response rating, Giant foxtail (giant foxtail; [3]): 9
- Giant foxtail plant response rating (giant foxtail; [4]): 10
- Giant foxtail plant response rating (giant foxtail; [5]): 10
- Giant foxtail plant response rating (giant foxtail; [6]): 5
- Nutsedge plant response rating (purple nutsedge; [1]): 0
- Plant response rating, Nutsedge (purple nutsedge; [2]): 2
- Plant response rating, Nutsedge (purple nutsedge; [3]): 0
- Nutsedge plant response rating (purple nutsedge; [4]): 0
- Nutsedge plant response rating (purple nutsedge; [5]): 0
- Nutsedge plant response rating (purple nutsedge; [6]): 0
- B. signalgrass plant response rating (surinam grass; [1]): 4
- B. signalgrass plant response rating (surinam grass; Postemergence, Rate 250 g/ha, scale 0 to 10, 0 no effect, 10 complete control): 6
- Plant response rating, B. signalgrass (surinam grass; [2]): 7
- Plant response rating, B. signalgrass (surinam grass; [3]): 4
- B. signalgrass plant response rating (surinam grass; [4]): 7
- B. signalgrass plant response rating (surinam grass; [12]): 7
- B. signalgrass plant response rating (surinam grass; [5]): 10
- B. signalgrass plant response rating (surinam grass; [6]): 0
- Blackgrass plant response rating (blackgrass; [1]): 8
- Blackgrass plant response rating (blackgrass; [11]): 8
- Plant response rating, Blackgrass (blackgrass; [2]): 8
- Plant response rating, Blackgrass (blackgrass; [3]): 5
- Blackgrass plant response rating (blackgrass; [4]): 8
- Blackgrass plant response rating (blackgrass; [12]): 8
- Blackgrass plant response rating (blackgrass; [5]): 10
- Blackgrass plant response rating (blackgrass; [6]): 1
- Plant response rating, S. Flatsedge (0 to 10 scale, 0 is no effect, 10 is complete control) (smallflower flatsedge; [7]): 0
- S. Flatsedge plant response rating (0 to 10 scale, 0 is no effect, 10 is complete control) (smallflower flatsedge; [8]): 0
- S. Flatsedge plant response rating (smallflower flatsedge; [9]): 0
- S. Flatsedge plant response rating (smallflower flatsedge; [10]): 0
- Corn plant response rating (corn; [1]): 0
- Corn plant response rating (corn; [11]): 0
- Plant response rating, Corn (corn; [2]): 0
- Plant response rating, Corn (corn; [3]): 0
- Corn plant response rating (corn; [4]): 0
- Corn plant response rating (corn; [5]): 6
- Corn plant response rating (corn; [6]): 0
- Wheat plant response rating (wheat; [1]): 0
- Plant response rating, Wheat (wheat; [2]): 3
- Plant response rating, Wheat (wheat; [3]): 0
- Wheat plant response rating (wheat; [4]): 0
- Wheat plant response rating (wheat; [5]): 5
- Wheat plant response rating (wheat; [6]): 0
